{"source": "patent US11542240B2", "about": "“STK19 inhibitors for treatment of cancer” (TRUSTEES OF BOSTON UNIVERSITY, priority 2018, dated 2023)", "assay_in_all_cases": "biochemical", "assay_type_in_all_cases": "binding", "key": {"[1]": {"target": "panel of 468 diverse kinases (Homo sapiens, UniProt Q96Q40)", "details": "PFTAIRE2; 1000 nM; read-out: Percent Control"}, "[2]": {"target": "panel of 468 diverse kinases (Homo sapiens, UniProt P35968)", "details": "VEGFR2; 1000 nM; read-out: Percent Control"}, "[3]": {"target": "panel of 468 diverse kinases (Homo sapiens, UniProt Q9BUB5)", "details": "MKNK1; 1000 nM; read-out: Percent Control"}, "[4]": {"target": "panel of 468 diverse kinases (Homo sapiens, UniProt Q9NRH2)", "details": "SNRK; 1000 nM; read-out: Percent Control"}, "[5]": {"target": "panel of 468 diverse kinases (Homo sapiens, UniProt Q8WU08)", "sequence (Q8WU08 2-396 limits assumed)": "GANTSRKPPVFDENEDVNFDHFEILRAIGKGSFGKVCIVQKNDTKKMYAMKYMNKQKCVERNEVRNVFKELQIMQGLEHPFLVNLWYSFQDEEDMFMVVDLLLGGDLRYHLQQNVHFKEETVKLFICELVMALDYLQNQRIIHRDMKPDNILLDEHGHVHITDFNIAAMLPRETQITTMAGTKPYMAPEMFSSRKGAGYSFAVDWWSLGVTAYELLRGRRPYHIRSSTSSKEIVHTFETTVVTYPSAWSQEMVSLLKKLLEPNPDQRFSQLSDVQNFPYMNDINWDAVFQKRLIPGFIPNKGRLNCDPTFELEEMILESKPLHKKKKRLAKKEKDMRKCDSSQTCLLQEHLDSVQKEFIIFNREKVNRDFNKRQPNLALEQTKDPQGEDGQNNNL", "details": "YANK1; 1000 nM; read-out: Percent Control"}, "[6]": {"target": "panel of 468 diverse kinases (Homo sapiens, UniProt Q8IY84)", "details": "NIM1; 1000 nM; read-out: Percent Control"}, "[7]": {"target": "panel of 468 diverse kinases (Homo sapiens, UniProt Q9UF33)", "sequence (Q9UF33 23-1036 limits assumed)": "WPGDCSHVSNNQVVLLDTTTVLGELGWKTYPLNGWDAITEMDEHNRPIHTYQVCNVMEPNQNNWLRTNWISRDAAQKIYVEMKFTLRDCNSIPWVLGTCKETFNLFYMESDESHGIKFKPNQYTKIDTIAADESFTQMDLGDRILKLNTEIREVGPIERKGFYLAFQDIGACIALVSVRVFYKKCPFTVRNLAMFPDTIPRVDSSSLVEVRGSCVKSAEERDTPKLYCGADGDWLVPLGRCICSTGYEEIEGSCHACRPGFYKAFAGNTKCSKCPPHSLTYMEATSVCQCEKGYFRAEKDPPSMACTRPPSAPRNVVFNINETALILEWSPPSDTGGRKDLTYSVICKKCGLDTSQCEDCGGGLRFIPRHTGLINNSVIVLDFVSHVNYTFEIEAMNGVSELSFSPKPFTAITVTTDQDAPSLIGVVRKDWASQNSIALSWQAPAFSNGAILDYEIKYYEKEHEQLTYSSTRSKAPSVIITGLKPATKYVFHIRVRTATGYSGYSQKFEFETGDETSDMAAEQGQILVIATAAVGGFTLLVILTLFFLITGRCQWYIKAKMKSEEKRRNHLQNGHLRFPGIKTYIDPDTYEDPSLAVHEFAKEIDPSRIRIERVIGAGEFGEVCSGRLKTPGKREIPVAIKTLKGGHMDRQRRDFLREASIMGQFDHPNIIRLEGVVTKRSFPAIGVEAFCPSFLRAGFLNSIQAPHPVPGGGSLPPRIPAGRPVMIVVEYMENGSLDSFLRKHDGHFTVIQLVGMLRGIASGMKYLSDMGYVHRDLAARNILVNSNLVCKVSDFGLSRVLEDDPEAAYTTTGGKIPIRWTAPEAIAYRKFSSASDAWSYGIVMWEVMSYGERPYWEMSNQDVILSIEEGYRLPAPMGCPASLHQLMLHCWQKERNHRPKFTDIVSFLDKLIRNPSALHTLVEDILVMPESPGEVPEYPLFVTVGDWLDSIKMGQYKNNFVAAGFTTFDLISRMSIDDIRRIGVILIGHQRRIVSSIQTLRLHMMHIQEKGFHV", "details": "EPHA6; 1000 nM; read-out: Percent Control"}, "[8]": {"target": "panel of 468 diverse kinases (Homo sapiens, UniProt P51955)", "details": "NEK2; 1000 nM; read-out: Percent Control"}, "[9]": {"target": "panel of 468 diverse kinases (Homo sapiens, UniProt O94768)", "details": "DRAK2; 1000 nM; read-out: Percent Control"}, "[10]": {"target": "panel of 468 diverse kinases (Homo sapiens, UniProt P54753)", "sequence (P54753 34-998 limits assumed)": "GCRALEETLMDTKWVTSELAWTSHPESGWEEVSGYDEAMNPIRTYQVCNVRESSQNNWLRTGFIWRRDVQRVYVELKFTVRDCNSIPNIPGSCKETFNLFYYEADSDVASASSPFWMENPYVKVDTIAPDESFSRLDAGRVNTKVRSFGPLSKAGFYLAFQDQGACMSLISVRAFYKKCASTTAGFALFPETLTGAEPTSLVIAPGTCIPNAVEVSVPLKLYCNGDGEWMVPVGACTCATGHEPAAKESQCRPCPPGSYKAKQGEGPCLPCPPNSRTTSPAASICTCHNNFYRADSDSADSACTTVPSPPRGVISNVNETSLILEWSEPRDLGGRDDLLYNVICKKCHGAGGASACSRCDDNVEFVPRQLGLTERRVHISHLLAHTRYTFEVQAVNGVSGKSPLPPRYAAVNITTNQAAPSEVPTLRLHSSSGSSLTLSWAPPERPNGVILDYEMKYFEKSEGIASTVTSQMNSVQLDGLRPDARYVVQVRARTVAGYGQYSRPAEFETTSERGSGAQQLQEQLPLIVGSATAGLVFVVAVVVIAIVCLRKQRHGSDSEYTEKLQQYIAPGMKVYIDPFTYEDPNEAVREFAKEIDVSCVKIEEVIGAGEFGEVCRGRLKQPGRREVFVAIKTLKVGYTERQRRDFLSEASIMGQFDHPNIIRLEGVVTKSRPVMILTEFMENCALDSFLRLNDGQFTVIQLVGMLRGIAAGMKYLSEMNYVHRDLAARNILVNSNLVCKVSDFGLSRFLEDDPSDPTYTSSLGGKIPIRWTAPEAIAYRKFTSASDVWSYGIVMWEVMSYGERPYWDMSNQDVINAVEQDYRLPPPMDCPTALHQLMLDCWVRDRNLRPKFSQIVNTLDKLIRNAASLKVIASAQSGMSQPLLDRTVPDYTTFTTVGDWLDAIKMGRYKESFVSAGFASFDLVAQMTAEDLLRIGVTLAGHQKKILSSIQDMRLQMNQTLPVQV", "details": "EPHB3; 1000 nM; read-out: Percent Control"}, "[11]": {"target": "panel of 468 diverse kinases (Homo sapiens, UniProt O15146)", "sequence (O15146 24-869 limits assumed)": "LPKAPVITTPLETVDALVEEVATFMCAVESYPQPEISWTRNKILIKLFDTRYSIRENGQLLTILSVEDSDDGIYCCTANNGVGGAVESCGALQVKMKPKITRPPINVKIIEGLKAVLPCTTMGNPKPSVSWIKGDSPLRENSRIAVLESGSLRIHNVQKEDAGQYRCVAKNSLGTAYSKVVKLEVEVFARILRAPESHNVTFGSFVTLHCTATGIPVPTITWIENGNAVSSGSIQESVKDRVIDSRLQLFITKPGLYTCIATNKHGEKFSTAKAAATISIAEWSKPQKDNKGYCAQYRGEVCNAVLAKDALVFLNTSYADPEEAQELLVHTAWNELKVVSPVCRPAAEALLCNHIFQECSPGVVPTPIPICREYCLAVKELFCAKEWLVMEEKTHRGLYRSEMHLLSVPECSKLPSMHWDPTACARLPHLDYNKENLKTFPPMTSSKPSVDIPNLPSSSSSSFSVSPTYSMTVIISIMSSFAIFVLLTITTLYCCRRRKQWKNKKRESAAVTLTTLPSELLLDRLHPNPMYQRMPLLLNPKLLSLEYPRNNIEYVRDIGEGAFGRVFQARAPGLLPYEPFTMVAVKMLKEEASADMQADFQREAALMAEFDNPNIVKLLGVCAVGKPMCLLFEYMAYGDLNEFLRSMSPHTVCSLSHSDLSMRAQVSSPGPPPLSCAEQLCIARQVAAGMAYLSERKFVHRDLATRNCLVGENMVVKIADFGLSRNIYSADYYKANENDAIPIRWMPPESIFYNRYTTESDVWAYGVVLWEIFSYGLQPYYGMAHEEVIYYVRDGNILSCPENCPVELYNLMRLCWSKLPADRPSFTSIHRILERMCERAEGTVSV", "details": "MUSK; 1000 nM; read-out: Percent Control"}, "[12]": {"target": "panel of 468 diverse kinases (Homo sapiens, UniProt Q9UK32)", "details": "1000 nM, read-out: Percent Control"}, "[13]": {"target": "panel of 468 diverse kinases (Homo sapiens, UniProt P36897)", "details": "TGFBR1; 1000 nM; read-out: Percent Control"}, "[14]": {"target": "panel of 468 diverse kinases (Homo sapiens, UniProt Q99683)", "details": "ASK1; 1000 nM; read-out: Percent Control"}, "[15]": {"target": "panel of 468 diverse kinases (Homo sapiens, UniProt Q8IW41)", "details": "MAPKAPK5; 1000 nM; read-out: Percent Control"}, "[16]": {"target": "panel of 468 diverse kinases (Homo sapiens, UniProt Q92772)", "details": "CDKL2; 1000 nM; read-out: Percent Control"}, "[17]": {"target": "panel of 468 diverse kinases (Homo sapiens, UniProt P48729)", "sequence (P48729 2-337 limits assumed)": "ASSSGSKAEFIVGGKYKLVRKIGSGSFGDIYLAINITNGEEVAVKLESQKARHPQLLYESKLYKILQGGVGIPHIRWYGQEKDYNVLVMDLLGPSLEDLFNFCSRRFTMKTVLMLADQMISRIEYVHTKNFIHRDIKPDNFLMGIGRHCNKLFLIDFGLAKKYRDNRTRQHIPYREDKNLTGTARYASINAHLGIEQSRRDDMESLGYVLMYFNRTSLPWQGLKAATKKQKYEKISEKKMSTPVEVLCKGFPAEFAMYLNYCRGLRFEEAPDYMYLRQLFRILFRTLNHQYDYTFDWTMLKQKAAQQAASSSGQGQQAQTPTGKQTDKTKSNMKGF", "details": "CSNKIV1; 1000 nM; read-out: Percent Control"}, "[18]": {"target": "panel of 468 diverse kinases (Homo sapiens, UniProt Q6ZWH5)", "details": "NEK10; 1000 nM; read-out: Percent Control"}, "[19]": {"target": "panel of 468 diverse kinases (Homo sapiens, UniProt Q9Y6E0)", "details": "MST3; 1000 nM; read-out: Percent Control"}, "[20]": {"target": "panel of 468 diverse kinases (Homo sapiens, UniProt Q9NYY3)", "details": "PLK2; 1000 nM; read-out: Percent Control"}, "[21]": {"target": "panel of 468 diverse kinases (Homo sapiens, UniProt Q52WX2)", "details": "SBK1; 1000 nM; read-out: Percent Control"}, "[22]": {"target": "panel of 468 diverse kinases (Homo sapiens, UniProt P00519, F317L)", "details": "1000 nM, read-out: Percent Control"}, "[23]": {"target": "panel of 468 diverse kinases (Homo sapiens, UniProt P42336, M1043I)", "details": "PIK3CA(M1043I); 1000 nM; read-out: Percent Control"}, "[24]": {"target": "panel of 468 diverse kinases (Homo sapiens, UniProt O14578)", "details": "CIT; 1000 nM; read-out: Percent Control"}, "[25]": {"target": "panel of 468 diverse kinases (Homo sapiens, UniProt O15197)", "sequence (O15197 32-1021 limits assumed)": "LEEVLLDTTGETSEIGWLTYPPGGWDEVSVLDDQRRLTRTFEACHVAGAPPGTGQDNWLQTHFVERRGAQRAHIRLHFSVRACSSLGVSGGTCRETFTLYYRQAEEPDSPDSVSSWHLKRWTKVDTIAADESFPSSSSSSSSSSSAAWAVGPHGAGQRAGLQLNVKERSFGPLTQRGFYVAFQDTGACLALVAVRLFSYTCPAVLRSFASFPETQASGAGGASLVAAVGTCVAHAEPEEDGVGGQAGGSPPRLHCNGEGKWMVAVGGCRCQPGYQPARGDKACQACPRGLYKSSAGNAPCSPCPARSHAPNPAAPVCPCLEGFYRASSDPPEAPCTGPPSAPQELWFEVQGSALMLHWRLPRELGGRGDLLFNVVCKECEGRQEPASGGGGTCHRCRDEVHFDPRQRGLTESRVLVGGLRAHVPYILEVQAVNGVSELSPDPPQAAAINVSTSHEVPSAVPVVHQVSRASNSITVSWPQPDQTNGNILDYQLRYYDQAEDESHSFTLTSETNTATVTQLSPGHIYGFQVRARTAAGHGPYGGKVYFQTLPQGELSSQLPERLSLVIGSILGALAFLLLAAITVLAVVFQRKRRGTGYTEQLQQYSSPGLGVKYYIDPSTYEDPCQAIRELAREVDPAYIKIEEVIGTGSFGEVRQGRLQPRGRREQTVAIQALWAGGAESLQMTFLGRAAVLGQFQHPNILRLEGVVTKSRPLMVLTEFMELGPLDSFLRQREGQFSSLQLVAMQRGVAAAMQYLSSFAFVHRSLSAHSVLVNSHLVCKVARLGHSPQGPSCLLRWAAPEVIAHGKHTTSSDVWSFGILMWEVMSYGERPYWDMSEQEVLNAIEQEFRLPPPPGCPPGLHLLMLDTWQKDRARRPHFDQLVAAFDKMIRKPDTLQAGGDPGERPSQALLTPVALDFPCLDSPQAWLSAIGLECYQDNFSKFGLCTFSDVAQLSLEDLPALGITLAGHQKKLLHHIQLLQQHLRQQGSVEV", "details": "EPHB6; 1000 nM; read-out: Percent Control"}, "[26]": {"target": "panel of 468 diverse kinases (Homo sapiens, UniProt P00519, Y253F)", "details": "ABL1(Y253F)-phosphorylated; 1000 nM; read-out: Percent Control"}, "[27]": {"target": "panel of 468 diverse kinases (Homo sapiens, UniProt P45985)", "sequence (P45985 2-399 limits assumed)": "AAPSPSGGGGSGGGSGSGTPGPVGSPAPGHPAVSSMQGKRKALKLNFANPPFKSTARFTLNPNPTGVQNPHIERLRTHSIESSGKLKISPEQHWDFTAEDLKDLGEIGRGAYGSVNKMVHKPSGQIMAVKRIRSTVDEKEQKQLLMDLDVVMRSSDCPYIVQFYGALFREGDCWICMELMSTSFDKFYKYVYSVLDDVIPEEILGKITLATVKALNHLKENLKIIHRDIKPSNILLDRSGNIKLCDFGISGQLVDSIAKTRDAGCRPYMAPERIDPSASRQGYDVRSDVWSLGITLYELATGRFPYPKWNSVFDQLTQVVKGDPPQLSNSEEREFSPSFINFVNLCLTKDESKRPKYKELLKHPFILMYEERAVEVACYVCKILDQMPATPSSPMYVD", "details": "MEK4; 1000 nM; read-out: Percent Control"}, "[28]": {"target": "panel of 468 diverse kinases (Homo sapiens, UniProt O00506)", "details": "YSK1; 1000 nM; read-out: Percent Control"}, "[29]": {"target": "panel of 468 diverse kinases (Homo sapiens, UniProt Q07002)", "details": "PCTK3; 1000 nM; read-out: Percent Control"}, "[30]": {"target": "panel of 468 diverse kinases (Homo sapiens, UniProt O95382)", "details": "ASK2; 1000 nM; read-out: Percent Control"}, "[31]": {"target": "panel of 468 diverse kinases (Homo sapiens, UniProt Q16288)", "details": "TRKC; 1000 nM; read-out: Percent Control"}}, "note": "Where two headings read alike, the source gives them in different places.", "data": [{"compound": "COc1cc2nc(NC3CC3)nc(NC3CCN(C(C)C)CC3)c2cc1OC", "note": "[Formula IV]", "values": [{"measurement": "remaining activity at 1 µM", "setting": "[1]", "result": 90, "unit": "%"}, {"measurement": "remaining activity at 1 µM", "setting": "[2]", "result": 45, "unit": "%"}, {"measurement": "remaining activity at 1 µM", "setting": "[3]", "result": 100, "unit": "%"}, {"measurement": "remaining activity at 1 µM", "setting": "[4]", "result": 78, "unit": "%"}, {"measurement": "remaining activity at 1 µM", "setting": "[5]", "result": 95, "unit": "%"}, {"measurement": "remaining activity at 1 µM", "setting": "[6]", "result": 72, "unit": "%"}, {"measurement": "remaining activity at 1 µM", "setting": "[7]", "result": 100, "unit": "%"}, {"measurement": "remaining activity at 1 µM", "setting": "[8]", "result": 100, "unit": "%"}, {"measurement": "remaining activity at 1 µM", "setting": "[9]", "result": 79, "unit": "%"}, {"measurement": "remaining activity at 1 µM", "setting": "[10]", "result": 100, "unit": "%"}, {"measurement": "remaining activity at 1 µM", "setting": "[11]", "result": 83, "unit": "%"}, {"measurement": "remaining activity at 1 µM", "setting": "[12]; RSK4(Kin.Dom.1-N-terminal)", "result": 92, "unit": "%"}, {"measurement": "remaining activity at 1 µM", "setting": "[12]; RSK4(Kin.Dom.2-C-terminal)", "result": 82, "unit": "%"}, {"measurement": "remaining activity at 1 µM", "setting": "[13]", "result": 82, "unit": "%"}, {"measurement": "remaining activity at 1 µM", "setting": "[14]", "result": 75, "unit": "%"}, {"measurement": "remaining activity at 1 µM", "setting": "[15]", "result": 63, "unit": "%"}, {"measurement": "remaining activity at 1 µM", "setting": "[16]", "result": 100, "unit": "%"}, {"measurement": "remaining activity at 1 µM", "setting": "[17]", "result": 74, "unit": "%"}, {"measurement": "remaining activity at 1 µM", "setting": "[18]", "result": 50, "unit": "%"}, {"measurement": "remaining activity at 1 µM", "setting": "[19]", "result": 96, "unit": "%"}, {"measurement": "remaining activity at 1 µM", "setting": "[20]", "result": 55, "unit": "%"}, {"measurement": "remaining activity at 1 µM", "setting": "[21]", "result": 64, "unit": "%"}, {"measurement": "remaining activity at 1 µM", "setting": "[22]; ABL1 (F317L)-nonpho sphorylated", "result": 82, "unit": "%"}, {"measurement": "remaining activity at 1 µM", "setting": "[22]; ABL1(F317L)-phosphorylated", "result": 40, "unit": "%"}, {"measurement": "remaining activity at 1 µM", "setting": "[23]", "result": 83, "unit": "%"}, {"measurement": "remaining activity at 1 µM", "setting": "[24]", "result": 100, "unit": "%"}, {"measurement": "remaining activity at 1 µM", "setting": "[25]", "result": 81, "unit": "%"}, {"measurement": "remaining activity at 1 µM", "setting": "[26]", "result": 100, "unit": "%"}, {"measurement": "remaining activity at 1 µM", "setting": "[27]", "result": 84, "unit": "%"}, {"measurement": "remaining activity at 1 µM", "setting": "[28]", "result": 98, "unit": "%"}, {"measurement": "remaining activity at 1 µM", "setting": "[29]", "result": 86, "unit": "%"}, {"measurement": "remaining activity at 1 µM", "setting": "[30]", "result": 93, "unit": "%"}, {"measurement": "remaining activity at 1 µM", "setting": "[31]", "result": 53, "unit": "%"}]}]}
